Measurements: patent US5840684A, “Glycopeptide antibiotic derivatives” (Eli Lilly and Company, priority 1995, dated 1998)
≈ marks a conversion by molar mass, not a printed value.

Assays:
[1] = test system: Leuconostoc pseudomesenteroides; test: agar dilution MIC, lactic acid bacteria; type: cell-based; conditions: brain-heart infusion agar
[2] = test system: Entercoccus faecium 276; test: broth micro-dilution MIC; type: cell-based
Protocol: (§1) The MIC's were determined using a standard broth micro-dilution assay.

[3] = test system: Staphylococcus aureus X400; test: broth micro-dilution MIC; type: cell-based
Protocol: as §1

[4] = test system: Entercoccus faecium 180-1; test: broth micro-dilution MIC; type: cell-based
Protocol: as §1

[5] = test system: Staphylococcus aureus SA1199; test: broth micro-dilution MIC; type: cell-based
Protocol: as §1

[6] = test system: Staphylococcus aureus SA1199A; test: broth micro-dilution MIC; type: cell-based
Protocol: as §1

[7] = test system: Staphylococcus aureus 489; test: broth micro-dilution MIC; type: cell-based
Protocol: as §1

[8] = test system: Staphylococcus aureus X778; test: broth micro-dilution MIC; type: cell-based
Protocol: as §1

[9] = test system: Streptococcus pneumoniae; test: mouse protection, experimentally-induced infection; type: in vivo; conditions: mice infected with Streptococcus pneumoniae, two doses
[10] = test system: Pediococcus pentosaceus; test: agar dilution MIC, lactic acid bacteria; type: cell-based; conditions: Pediococcus pentosaceus (mean of 2), brain-heart infusion agar
[11] = test system: Streptococcus pyogenes; test: mouse protection, experimentally-induced infection; type: in vivo; conditions: mice infected with Streptococcus pyogenes, two doses
[12] = test system: vancomycin-susceptible enterococci; test: broth micro-dilution, mean geometric MIC; type: cell-based, Enterococcus faecium and Enterococcus faecalis; conditions: enterococci, 24-hour incubation
[13] = test system: vancomycin-resistant enterococci; test: broth micro-dilution, mean geometric MIC; type: cell-based, Enterococcus faecium and Enterococcus faecalis; conditions: enterococci, 24-hour incubation
[14] = test system: Staphylococcus aureus SA1199B; type: cell-based
Protocol: as §1

[15] = test system: Staphylococcus aureus S13E; type: cell-based
Protocol: as §1

[16] = test system: Lactobacillus confusus; test: agar dilution MIC, lactic acid bacteria; type: cell-based; conditions: Lactobacillus confusus, brain-heart infusion agar
[17] = test system: Leuconostoc mesenteroides; test: agar dilution MIC, lactic acid bacteria; type: cell-based; conditions: Leuconostoc mesenteroides (mean of 4), brain-heart infusion agar
[18] = test system: Stapylococcus aureus; test: mouse protection, experimentally-induced infection; type: in vivo; conditions: mice infected with Stapylococcus aureus, two doses
[19] = test system: Leuconostoc citreum; test: agar dilution MIC, lactic acid bacteria; type: cell-based; conditions: brain-heart infusion agar
[20] = test system: Pediococcus acidilacti; test: agar dilution MIC, lactic acid bacteria; type: cell-based; conditions: Pediococcus acidilacti (mean of 10), brain-heart infusion agar
[21] = test system: Entercoccus faecium 180; test: broth micro-dilution MIC; type: cell-based; conditions: Entercoccus faecium 180
Protocol: (§2) The formula I compounds have in vitro and in vivo activity against Gram-positive pathogenic bacteria. The MIC's were determined using a standard broth micro-dilution assay.

[22] = test system: Staphylococcus haemolyticus 105; test: broth micro-dilution MIC; type: cell-based
Protocol: as §2

[23] = test system: Staphylococcus haemolyticus 415; test: broth micro-dilution MIC; type: cell-based
Protocol: as §2

[24] = test system: Leuconostoc lactis; test: agar dilution MIC, lactic acid bacteria; type: cell-based; conditions: Leuconostoc lactis (mean of 2), brain-heart infusion agar
[25] = test system: Streptococcus pyogenes C203; test: broth micro-dilution MIC; type: cell-based
Protocol: as §1

[26] = test system: Staphylococcus aureus 446; test: broth micro-dilution MIC; type: cell-based
Protocol: as §1

[27] = test system: Staphylococcus aureus 447; test: broth micro-dilution MIC; type: cell-based
Protocol: as §1

[28] = test system: Entercoccus faecium 2041; test: broth micro-dilution MIC; type: cell-based; conditions: Entercoccus faecium 2041
Protocol: as §2

[29] = test system: Enterococcus gallinarum 245; test: broth micro-dilution MIC; type: cell-based; conditions: Enterococcus gallinarum 245
Protocol: as §2

[30] = test system: Streptococcus pneumoniae P1; test: broth micro-dilution MIC; type: cell-based
Protocol: as §2

[31] = test system: Staphylococcus aureus 491; test: broth micro-dilution MIC; type: cell-based
Protocol: as §1

[32] = test system: Staphylococcus epidermidis 270; test: broth micro-dilution MIC; type: cell-based
Protocol: as §2

## CN[C@H](CC(C)C)C(=O)N[C@H]1C(=O)N[C@@H](CC(N)=O)C(=O)N[C@H]2C(=O)N[C@H]3C(=O)N[C@H](C(=O)N[C@H](C(=O)O)c4cc(O)cc(O)c4-c4cc3ccc4O)[C@H](O[C@H]3C[C@](C)(N)[C@@H](O)[C@H](C)O3)c3ccc(c(Cl)c3)Oc3cc2cc(c3O[C@@H]2O[C@H](CO)[C@@H](O)[C@H](O)[C@H]2O[C@H]2C[C@](C)(N)[C@@H](O)[C@H](C)O2)Oc2ccc(cc2Cl)[C@H]1O [Compound A82846B, A82846B, reference compound]
[1]
  MIC: > 256 µg/mL
[2]
  MIC: 0.125 µg/mL (≈ 0.0785 µM)
[3]
  MIC: 0.125 µg/mL (≈ 0.0785 µM)
[4]
  MIC: 0.125 µg/mL (≈ 0.0785 µM)
[5]
  MIC: 0.125 µg/mL (≈ 0.0785 µM)
[6]
  MIC: ≤ .06 µg/mL
[7]
  MIC: ≤ .06 µg/mL
[8]
  MIC: 0.125 µg/mL (≈ 0.0785 µM)
[9]
  ED50: 0.18 mg/kg/2
[10]
  MIC: > 256 µg/mL
[11]
  ED50: 0.12 mg/kg/2
[12]
  mean geometric MIC, Vancomycin Sensitive Strains: 0.22 µg/mL
[13]
  mean geometric MIC, Vancomycin Resistant Strains: 29 µg/mL
[14]
  MIC: 0.125 µg/mL (≈ 0.0785 µM)
[15]
  MIC: 0.125 µg/mL (≈ 0.0785 µM)
[16]
  MIC: > 256 µg/mL
[17]
  MIC: > 256 µg/mL
[18]
  ED50: 0.25 mg/kg/2
[19]
  MIC: > 256 µg/mL
[20]
  MIC: 141 µg/mL (≈ 88.5 µM)
[21]
  MIC: 8 µg/mL (≈ 5.02 µM)
[22]
  MIC: 1 µg/mL (≈ 0.628 µM)
[23]
  MIC: 4 µg/mL (≈ 2.51 µM)

## CNC(CC(C)C)C(=O)NC1C(=O)NC(CC(N)=O)C(=O)NC2C(=O)NC3C(=O)NC(C(=O)NC(C(=O)O)c4cc(O)cc(O)c4-c4cc3ccc4O)C(OC3CC(C)(N)C(O)C(C)O3)c3ccc(c(Cl)c3)Oc3cc2cc(c3OC2OC(CO)C(O)C(O)C2OC2CC(C)(NCc3ccc(OC(F)(F)F)cc3)C(O)C(C)O2)Oc2ccc(cc2Cl)C1O (centres unmarked) [Compound 6]
[1]
  MIC: 16 µg/mL (≈ 9.06 µM)
[24]
  MIC: 8.0 µg/mL (≈ 4.53 µM)
[2]
  MIC: ≤ 0.06 µg/mL
[4]
  MIC: ≤ 0.06 µg/mL
[6]
  MIC: ≤ 0.06 µg/mL
[25]
  MIC: ≤ 0.06 µg/mL
[26]
  MIC: 0.5 µg/mL (≈ 0.283 µM)
[27]
  MIC: 0.5 µg/mL (≈ 0.283 µM)
[9]
  ED50: 0.021 mg/kg/2
[10]
  MIC: 8.0 µg/mL (≈ 4.53 µM)
[11]
  ED50: 0.013 mg/kg/2
[12]
  mean geometric MIC, Vancomycin Sensitive Strains: 0.14 µg/mL
[13]
  mean geometric MIC, Vancomycin Resistant Strains: 1.2 µg/mL
[16]
  MIC: 16 µg/mL (≈ 9.06 µM)
[17]
  MIC: 9.5 µg/mL (≈ 5.38 µM)
[18]
  ED50: 0.15 mg/kg/2
[20]
  MIC: 4.3 µg/mL (≈ 2.43 µM)
[28]
  MIC: ≤ 0.06 µg/mL
[29]
  MIC: ≤ 0.06 µg/mL
[30]
  MIC: ≤ 0.06 µg/mL
[22]
  MIC: 0.5 µg/mL (≈ 0.283 µM)
[23]
  MIC: 0.5 µg/mL (≈ 0.283 µM)

## CNC(CC(C)C)C(=O)NC1C(=O)NC(CC(N)=O)C(=O)NC2C(=O)NC3C(=O)NC(C(=O)NC(C(=O)O)c4cc(O)cc(O)c4-c4cc3ccc4O)C(OC3CC(C)(N)C(O)C(C)O3)c3ccc(c(Cl)c3)Oc3cc2cc(c3OC2OC(CO)C(O)C(O)C2OC2CC(C)(NCc3ccc(-c4ccccc4)cc3)C(O)C(C)O2)Oc2ccc(cc2Cl)C1O (centres unmarked) [Compound 2, p-phenylbenzyl·A82846B]
[1]
  MIC: 32 µg/mL (≈ 18.2 µM)
[24]
  MIC: 4.0 µg/mL (≈ 2.27 µM)
[2]
  MIC: 0.5 µg/mL (≈ 0.284 µM)
[3]
  MIC: 1 µg/mL (≈ 0.569 µM)
[4]
  MIC: ≤ 0.06 µg/mL
[31]
  MIC: ≤ 0.06 µg/mL
[5]
  MIC: 0.5 µg/mL (≈ 0.284 µM)
[6]
  MIC: ≤ 0.06 µg/mL
[25]
  MIC: ≤ 0.06 µg/mL
[26]
  MIC: ≤ 0.06 µg/mL
[27]
  MIC: ≤ 0.06 µg/mL
[8]
  MIC: ≤ 0.06 µg/mL
[9]
  ED50: 0.025 mg/kg/2
[10]
  MIC: 11 µg/mL (≈ 6.25 µM)
[11]
  ED50: 0.014 mg/kg/2
[12]
  mean geometric MIC, Vancomycin Sensitive Strains: 0.00038 µg/mL
[13]
  mean geometric MIC, Vancomycin Resistant Strains: 0.044 µg/mL
[14]
  MIC: ≤ 0.06 µg/mL
[15]
  MIC: ≤ 0.06 µg/mL
[16]
  MIC: 16 µg/mL (≈ 9.1 µM)
[17]
  MIC: 16 µg/mL (≈ 9.1 µM)
[18]
  ED50: 0.27 mg/kg/2
[20]
  MIC: 5.9 µg/mL (≈ 3.35 µM)
[28]
  MIC: 0.125 µg/mL (≈ 0.0711 µM)
[29]
  MIC: ≤ 0.06 µg/mL
[30]
  MIC: ≤ 0.06 µg/mL
[32]
  MIC: 8 µg/mL (≈ 4.55 µM)
[22]
  MIC: 2 µg/mL (≈ 1.14 µM)
[23]
  MIC: 1 µg/mL (≈ 0.569 µM)
